In paper PMC11124387, “A Reliable Multifaceted Solution against Foodborne Viral Infections: The Case of RiLK1 Decapeptide” (Molecules, 2024):
Read-outs that look alike come from different tables or passages of the source.

Key:
[1] = system: Hepatitis A virus (HAV) strain HM-175; test: Virucidal effect of peptides on HAV (residual infectivity by TCID50 titration on Frp3 cells); type: cell-based; details: for Viral Titre after Treatment: titration on Frp3 cells; for Viral Titre after Treatment / LRV (log reduction value): mean ± SD, triplicate
Text: (§1) Murine norovirus strain 1 (MNV-1) was used as a surrogate for human norovirus (NoV). The virus was replicated in RAW 264.7 cells (murine macrophage cell line) cultured in Dulbecco’s modified Eagle’s medium (DMEM) supplemented with 1% glutamine, 1% non-essential amino acids, and 2% fetal bovine serum (FBS). Hepatitis A virus (HAV) strain HM-175 was replicated in Frp3 cells (non-human primate cell line derived from fetal kidney) cultured in minimum essential medium (MEM) with Earle’s salts supplemented with 1% glutamine, 2% non-essential amino acids, and 2% FBS. Both viruses were incubated in 5% CO2 at 37 °C. All cell culture media were provided by EuroClone (Milan, Italy). The viral suspensions were prepared by freeze and thaw lysis (1 cycle for MNV-1 and 3 cycles for HAV) of infected monolayers, clarified using low-speed centrifugation (800× g) to remove residual cell debris, then divided in aliquots, and stored at −80 °C until use.
(§2) Solutions 40 µM and 80 µM of each peptide of the panel (RiLK1, RiLK3, RiLK30, 1018-K6, MTP1, and AVP2) were chosen for the virucidal tests. HAV and MNV-1 were assayed at a concentration of 4.7 ± 0.2 log TCID50/mL and 4.5 ± 0.2 log TCID50/mL, respectively. The suspensions containing the peptides and viruses were incubated for 1 h at room temperature (RT,20 ± 2 °C) and 4 °C. These temperatures were chosen to simulate the use of sanitizing solutions in food production/processing environments. Residual viral infectivity was evaluated by titration (TCID50/mL) on Frp3 cells for HAV and on RAW 264.7 cells for MNV-1. Untreated HAV and MNV-1 suspensions and 40 µM and 80 µM AMP solutions, incubated at the same conditions, were used as controls. Each treatment condition was assayed in triplicate. For titration, 100 µL of serial tenfold dilutions of each sample were assayed in 24-well tissue culture plates containing 24–48 h cell monolayers and incubated for 1 h in 5% CO2 at 37 °C. After that, the wells were washed twice with 200 µL of PBS, and 500 µL of DMEM/MEM, supplemented with 2% of FBS, were was added to each well; MNV-1 and HAV incubations were carried for up to 6 days and 14 days, respectively, in 5% CO2 at 37 °C with daily visual inspection to determine the cytopathic effect. The virucidal efficacy of AMPs was estimated by comparing the titers of treated and untreated viral suspensions.
(§3) For each treatment, the average and standard deviation of the triplicate analyses were calculated. The virucidal effects of AMPs was assessed by calculating the log reduction value (LRV), i.e., the difference between the infectious titer (log-transformed) of untreated versus treated samples. The statistical significance of differences between treated and untreated samples was determined through one-way analysis of variance (ANOVA) with Bonferroni post hoc comparisons, with a significance level of p < 0.05 (GraphPad Prism v9.5.0, software San Diego, CA, USA).

[2] = system: Murine norovirus strain 1 (MNV-1); type: cell-based; details: for Viral Titre after Treatment: titration on RAW 264.7 cells; for Viral Titre after Treatment / LRV (log reduction value): mean ± SD, triplicate
Text: as §1, §2, §3

Salmonella Napoli = test: Antibacterial assay, Salmonella Napoli; type: cell-based; details: even at the highest concentration tested (80 µM), 6 h at 37 °C
Text: (§4) The monophasic variant of Salmonella Typhimurium, Salmonella Napoli, and Campylobacter jejuni were isolated by the Laboratory of Microbiological Food Control—Department of Food Microbiology of the Istituto Zooprofilattico Sperimentale del Mezzogiorno in Portici (Naples, Italy) in raw and processed foodstuffs of animal origin. Specifically, the monophasic variant of S. Typhimurium and S. Napoli were isolated from bivalve mollusks, while C. jejuni was isolated from poultry meat. Bacterial cells were cultured at 37 °C in the appropriate culture media (S. Typhimurium and S. Napoli in buffered peptone water (Thermo Fisher, Milan, Italy) and C. jejuni in Bolton Broth (Oxoid, Madrid, Spain)) until collection and then diluted in fresh broth to a final concentration of 1.5 × 10^3 colony forming units (CFUs)/mL. Thereafter, peptide stock solutions in DMSO were added to the bacterial suspension at the same concentrations used in the virucidal assays (40 and 80 µM) and incubated at 37 °C for 6 h. Samples containing only cell suspension and DMSO were used as controls. […]

Campylobacter jejuni = type: cell-based; details: peptide 40 and 80 µM, 6 h at 37 °C
Text: as §4

[3] = pH 2; cited from earlier work
Protocol: In this context, to acquire important information on how the conformational properties of peptides might influence the structure–function relationships and their distinct membrane interaction profiles, the propensity of the new peptides, RiLK30 and AVP2, to adopt a defined secondary structure and to undergo conformational changes were examined by circular dichroism and fluorescence spectroscopy. These analyses were performed in the presence of a negatively charged SDS that is commonly used as a biomimetic membrane model to study the structural features of membranotropic molecules. In previous ...

[4] = HAV + peptide 40 µM, 1 h at RT (20 ± 2 °C)
[5] = HAV + peptide 80 µM, 1 h at RT (20 ± 2 °C)
[6] = MNV-1 + peptide 40 µM, 1 h at 4 °C
[7] = MNV-1 + peptide 40 µM, 1 h at RT (20 ± 2 °C)
[8] = MNV-1 + peptide 80 µM, 1 h at RT (20 ± 2 °C)

KVSGVLFGTGLWVAL-NH2 [MTP1, previously designed 15-residue antimicrobial peptide, C-terminally amidated]
Viral Titre after Treatment ([1]; HAV 4.7 ± 0.2 log TCID50/mL + peptide 80 µM, 1 h at 4 °C): 3.8 ± 0.2 logTCID50/mL
Viral Titre after Treatment ([1]; HAV + peptide 40 µM, 1 h at 4 °C): 3.6 ± 0.3 logTCID50/mL
LRV (log reduction value) ([1]; HAV + peptide 40 µM, 1 h at 4 °C, untreated minus treated titre): 1.1 ± 0.2 logTCID50/mL
LRV (log reduction value) [1, 4]: 1.5 ± 0.4 logTCID50/mL
Viral Titre after Treatment [1, 4]: 3.2 ± 0.2 logTCID50/mL
LRV (log reduction value) ([1]; HAV + peptide 80 µM, 1 h at 4 °C, untreated minus treated titre): 0.9 ± 0.4 logTCID50/mL
LRV (log reduction value) [1, 5]: 1.2 ± 0.3 logTCID50/mL
Viral Titre after Treatment [1, 5]: 3.5 ± 0.1 logTCID50/mL
decrease of HAV infectious titer ([1]; maximum reduction, corresponding to the highest LRV): up to 97.3%
virucidal activity toward MNV-1 (in words) ([2]; 40 and 80 µM, 4 °C and RT): no significant effects
Viral Titre after Treatment ([2]; MNV-1 4.5 ± 0.2 log TCID50/mL + peptide 80 µM, 1 h at 4 °C): 4.5 ± 0.1 logTCID50/mL
LRV (log reduction value) [2, 6]: 0.1 ± 0.3 logTCID50/mL
Viral Titre after Treatment [2, 6]: 4.4 ± 0.1 logTCID50/mL
LRV (log reduction value) [2, 7]: 0 ± 0.4 logTCID50/mL
Viral Titre after Treatment [2, 7]: 4.5 ± 0.2 logTCID50/mL
LRV (log reduction value) ([2]; MNV-1 + peptide 80 µM, 1 h at 4 °C): 0 ± 0.3 logTCID50/mL
LRV (log reduction value) [2, 8]: 0 ± 0.4 logTCID50/mL
Viral Titre after Treatment [2, 8]: 4.5 ± 0.2 logTCID50/mL
bactericidal activity (growth inhibition on selective plates) (Salmonella Napoli): no detectable killing effects
inhibitory activity against Campylobacter jejuni (in words) (Campylobacter jejuni): did not display any inhibitory activity
structural stability [3]: high structural stability
